Laboratory results from ChEMBL document CHEMBL1150045, “Callyspongenols A-C, new cytotoxic C22-polyacetylenic alcohols from a red sea sponge, Callyspongia species” (J Nat Prod, 2003).
Values after ≈ are worked out from the molar mass of the structure shown.

Legend:
[1] = tested on: HeLa; assay: Cytotoxicity against human HeLa cells; type: functional, cell-based
[2] = tested on: P388; assay: Cytotoxicity against mouse P388 cells; type: functional, cell-based

SMILES	IC50 [1] [mg/L]	IC50 [2] [mg/L]
C#C/C=C\CCCCC#CCCCCC#CCCCC#CCO	4.5 (≈ 14.6 µM)	2.2 (≈ 7.13 µM)
C#C/C=C\CCCCCCC#CC#CCCC/C=C\C#CCO [CALLYSPONGENOL B]	10 (≈ 32.6 µM)	10 (≈ 32.6 µM)
C#C/C=C\CCCC/C=C\C#CC#CCCC/C=C\C#CCO [CALLYSPONGENOL C]	3.9 (≈ 12.8 µM)	2.2 (≈ 7.23 µM)
C#C/C=C\CCCCC#CC#CC#CCCC/C=C\C#CCO [DEHYDROISOPHONOCHALYNOL]	5.1 (≈ 16.9 µM)	2.2 (≈ 7.27 µM)
COc1cccc2c1C(=O)c1c(O)c3c(c(O)c1C2=O)C[C@@](O)(C(=O)CO)C[C@@H]3O[C@H]1C[C@H](N)[C@H](O)[C@H](C)O1 [DOXORUBICIN]	0.066 (≈ 0.121 µM)	0.04 (≈ 0.0736 µM)
